Measured values reported in ChEMBL document CHEMBL1133428, “Naphthyl ketones: a new class of Janus kinase 3 inhibitors” (Bioorg Med Chem Lett, 2000).

Assays:
[1] = molecular target: Tyrosine-protein kinase JAK1 (Homo sapiens, UniProt P23458); test: Inhibition of Janus kinase 1
[2] = molecular target: Cyclin-dependent kinase 4 (Homo sapiens, UniProt P11802); test: Inhibition of Cyclin-dependent kinase 4
[3] = molecular target: Epidermal growth factor receptor (Homo sapiens, UniProt P00533); test: Inhibition of Epidermal growth factor receptor
Epidermal growth factor receptor, sequence (P00533 whole entry): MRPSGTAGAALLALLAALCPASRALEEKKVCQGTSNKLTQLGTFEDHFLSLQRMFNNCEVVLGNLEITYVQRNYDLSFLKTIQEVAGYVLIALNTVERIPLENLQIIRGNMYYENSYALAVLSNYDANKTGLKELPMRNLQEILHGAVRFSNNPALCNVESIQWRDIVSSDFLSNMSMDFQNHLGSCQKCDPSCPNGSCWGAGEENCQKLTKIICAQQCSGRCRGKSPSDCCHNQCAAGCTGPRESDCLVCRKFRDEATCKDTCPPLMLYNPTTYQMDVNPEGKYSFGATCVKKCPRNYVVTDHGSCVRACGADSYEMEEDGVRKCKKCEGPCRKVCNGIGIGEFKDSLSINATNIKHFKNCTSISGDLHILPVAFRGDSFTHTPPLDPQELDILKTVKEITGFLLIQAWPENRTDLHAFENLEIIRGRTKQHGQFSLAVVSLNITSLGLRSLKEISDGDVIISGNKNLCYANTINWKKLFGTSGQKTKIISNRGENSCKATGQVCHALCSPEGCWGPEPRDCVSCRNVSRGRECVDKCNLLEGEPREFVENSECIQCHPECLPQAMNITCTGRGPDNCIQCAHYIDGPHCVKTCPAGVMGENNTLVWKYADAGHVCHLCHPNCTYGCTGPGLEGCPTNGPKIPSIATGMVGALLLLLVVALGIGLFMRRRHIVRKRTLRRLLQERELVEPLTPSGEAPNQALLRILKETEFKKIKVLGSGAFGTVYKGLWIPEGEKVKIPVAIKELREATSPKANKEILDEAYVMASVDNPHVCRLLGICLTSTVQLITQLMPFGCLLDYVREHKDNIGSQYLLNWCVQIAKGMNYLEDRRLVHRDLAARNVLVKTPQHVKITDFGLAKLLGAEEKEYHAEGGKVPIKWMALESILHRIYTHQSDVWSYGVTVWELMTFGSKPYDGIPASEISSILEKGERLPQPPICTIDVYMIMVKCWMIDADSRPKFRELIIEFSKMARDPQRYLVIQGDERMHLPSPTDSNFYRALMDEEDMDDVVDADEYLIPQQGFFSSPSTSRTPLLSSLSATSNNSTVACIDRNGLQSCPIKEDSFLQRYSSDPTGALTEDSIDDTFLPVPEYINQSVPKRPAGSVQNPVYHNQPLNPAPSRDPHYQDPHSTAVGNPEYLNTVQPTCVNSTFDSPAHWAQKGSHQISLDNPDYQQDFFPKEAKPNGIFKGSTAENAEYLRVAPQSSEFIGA

[4] = molecular target: Tyrosine-protein kinase Lck (Homo sapiens, UniProt P06239); test: Inhibition of p56 Lck tyrosine kinase
Tyrosine-protein kinase Lck, sequence (P06239 whole entry): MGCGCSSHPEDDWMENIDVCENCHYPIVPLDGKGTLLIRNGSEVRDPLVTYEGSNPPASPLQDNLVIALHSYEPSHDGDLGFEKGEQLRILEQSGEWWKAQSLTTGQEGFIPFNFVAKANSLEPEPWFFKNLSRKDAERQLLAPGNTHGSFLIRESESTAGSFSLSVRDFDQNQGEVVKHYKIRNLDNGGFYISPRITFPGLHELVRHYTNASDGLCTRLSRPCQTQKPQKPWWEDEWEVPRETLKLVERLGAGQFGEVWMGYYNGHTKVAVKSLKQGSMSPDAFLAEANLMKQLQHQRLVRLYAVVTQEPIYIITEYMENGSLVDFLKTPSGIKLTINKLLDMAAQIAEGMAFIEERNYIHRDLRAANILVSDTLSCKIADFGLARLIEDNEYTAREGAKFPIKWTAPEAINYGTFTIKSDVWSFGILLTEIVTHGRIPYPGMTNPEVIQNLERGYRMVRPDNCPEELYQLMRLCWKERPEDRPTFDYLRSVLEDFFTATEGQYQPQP

Cyclin-dependent kinase 4, sequence (P11802 whole entry): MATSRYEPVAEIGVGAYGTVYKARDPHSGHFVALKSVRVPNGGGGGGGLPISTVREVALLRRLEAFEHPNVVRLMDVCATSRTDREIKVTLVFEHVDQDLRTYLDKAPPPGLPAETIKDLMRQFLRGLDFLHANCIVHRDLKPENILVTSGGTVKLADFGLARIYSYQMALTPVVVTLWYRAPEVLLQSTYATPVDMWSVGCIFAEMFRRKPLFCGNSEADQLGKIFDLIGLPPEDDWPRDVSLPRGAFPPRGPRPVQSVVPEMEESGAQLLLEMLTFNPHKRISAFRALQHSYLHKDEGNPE
Tyrosine-protein kinase JAK1, sequence (P23458 whole entry): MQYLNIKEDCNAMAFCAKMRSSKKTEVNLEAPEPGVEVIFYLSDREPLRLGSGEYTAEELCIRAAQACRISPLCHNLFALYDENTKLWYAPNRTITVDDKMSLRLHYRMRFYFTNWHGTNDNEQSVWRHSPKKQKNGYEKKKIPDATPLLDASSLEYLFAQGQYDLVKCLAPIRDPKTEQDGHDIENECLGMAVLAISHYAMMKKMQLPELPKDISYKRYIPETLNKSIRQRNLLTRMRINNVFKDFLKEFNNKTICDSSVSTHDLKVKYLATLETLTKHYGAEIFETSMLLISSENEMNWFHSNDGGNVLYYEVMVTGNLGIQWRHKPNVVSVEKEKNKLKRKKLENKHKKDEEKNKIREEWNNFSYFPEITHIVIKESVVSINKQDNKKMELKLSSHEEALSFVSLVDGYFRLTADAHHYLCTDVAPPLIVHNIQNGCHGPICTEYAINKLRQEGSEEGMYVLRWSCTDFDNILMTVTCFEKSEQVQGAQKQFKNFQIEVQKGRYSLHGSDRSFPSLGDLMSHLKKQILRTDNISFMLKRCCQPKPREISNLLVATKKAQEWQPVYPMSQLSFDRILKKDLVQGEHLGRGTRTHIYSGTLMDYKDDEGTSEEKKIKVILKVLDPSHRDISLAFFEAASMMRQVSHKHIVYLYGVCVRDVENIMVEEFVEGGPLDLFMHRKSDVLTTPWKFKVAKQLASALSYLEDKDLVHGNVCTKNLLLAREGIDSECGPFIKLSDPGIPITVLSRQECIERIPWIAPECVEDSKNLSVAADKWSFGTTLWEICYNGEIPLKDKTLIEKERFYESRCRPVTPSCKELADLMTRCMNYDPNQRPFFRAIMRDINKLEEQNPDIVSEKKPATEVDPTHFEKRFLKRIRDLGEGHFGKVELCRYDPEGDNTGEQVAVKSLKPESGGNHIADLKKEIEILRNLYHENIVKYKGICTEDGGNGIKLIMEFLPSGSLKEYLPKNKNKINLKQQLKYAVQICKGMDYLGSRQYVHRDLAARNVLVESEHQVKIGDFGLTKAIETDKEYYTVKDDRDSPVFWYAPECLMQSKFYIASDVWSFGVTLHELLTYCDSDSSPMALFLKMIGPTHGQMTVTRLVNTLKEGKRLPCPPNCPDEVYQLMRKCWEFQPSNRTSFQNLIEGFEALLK

For `CC(C)N(CCC(=O)c1ccc2ccccc2c1)Cc1ccccc1`, the IC50 [1] was 39.8 µM, the IC50 [2] was greater than 10 µM and the IC50 [3] was 2.51 µM. For the same compound, the IC50 [4] was greater than 10 µM.

For `C=CC(=O)c1ccc2ccccc2c1`, the IC50 [1] was 20 µM, the IC50 [2] was greater than 10 µM and the IC50 [3] was 10 µM. The IC50 [4] was greater than 10 µM.
